Test results from PubChem BioAssay (NCI).
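1) Cells in 96-well plates. 2) Compound, 48 h, 5 concentrations. 3) Linear interpolation between surrounding doses. 4) Unreached endpoint = highest concentration. Here, GI50 denotes the concentration required for 50% inhibition of growth. Definition used: TGI = concentration required for complete inhibition of growth.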

Legend:
Assay in all cases: NCI-60 cell line screen, 48 h
786-0 renal = tested on: 786-0 renal
A498 renal = tested on: A498 renal
A549 NSCLC = tested on: A549 NSCLC
ACHN renal = tested on: ACHN renal
BT-549 breast = tested on: BT-549 breast
CAKI-1 renal = tested on: CAKI-1 renal
CCRF-CEM leukemia = tested on: CCRF-CEM leukemia
COLO 205 colon = tested on: COLO 205 colon
DU-145 prostate = tested on: DU-145 prostate
EKVX NSCLC = tested on: EKVX NSCLC
HCC-2998 colon = tested on: HCC-2998 colon
HCT-116 colon = tested on: HCT-116 colon
HCT-15 colon = tested on: HCT-15 colon
HL-60(TB) leukemia = tested on: HL-60(TB) leukemia
HOP-62 NSCLC = tested on: HOP-62 NSCLC
HOP-92 NSCLC = tested on: HOP-92 NSCLC
HS 578T breast = tested on: HS 578T breast
HT29 colon = tested on: HT29 colon
IGROV1 ovarian = tested on: IGROV1 ovarian
K-562 leukemia = tested on: K-562 leukemia
KM12 colon = tested on: KM12 colon
LOX IMVI melanoma = tested on: LOX IMVI melanoma
M14 melanoma = tested on: M14 melanoma
MALME-3M melanoma = tested on: MALME-3M melanoma
MCF7 breast = tested on: MCF7 breast
MDA-MB-231 breast = tested on: MDA-MB-231 breast
MDA-MB-435 = tested on: MDA-MB-435
MOLT-4 leukemia = tested on: MOLT-4 leukemia
NCI-H226 lung = tested on: NCI-H226 lung
NCI-H23 lung = tested on: NCI-H23 lung
NCI-H460 lung = tested on: NCI-H460 lung
NCI-H522 lung = tested on: NCI-H522 lung
NCI/ADR-RES ovarian = tested on: NCI/ADR-RES ovarian
OVCAR-3 ovarian = tested on: OVCAR-3 ovarian
OVCAR-4 ovarian = tested on: OVCAR-4 ovarian
OVCAR-5 ovarian = tested on: OVCAR-5 ovarian
OVCAR-8 ovarian = tested on: OVCAR-8 ovarian
PC-3 prostate = tested on: PC-3 prostate
RPMI-8226 leukemia = tested on: RPMI-8226 leukemia
RXF 393 renal = tested on: RXF 393 renal
SF-268 CNS = tested on: SF-268 CNS
SF-295 CNS = tested on: SF-295 CNS
SF-539 CNS = tested on: SF-539 CNS
SK-MEL-2 melanoma = tested on: SK-MEL-2 melanoma
SK-MEL-28 melanoma = tested on: SK-MEL-28 melanoma
SK-MEL-5 melanoma = tested on: SK-MEL-5 melanoma
SK-OV-3 ovarian = tested on: SK-OV-3 ovarian
SN12C renal = tested on: SN12C renal
SNB-19 CNS = tested on: SNB-19 CNS
SNB-75 CNS = tested on: SNB-75 CNS
SR leukemia = tested on: SR leukemia
SW-620 colon = tested on: SW-620 colon
T-47D breast = tested on: T-47D breast
TK-10 renal = tested on: TK-10 renal
U251 CNS = tested on: U251 CNS
UACC-257 melanoma = tested on: UACC-257 melanoma
UACC-62 melanoma = tested on: UACC-62 melanoma
UO-31 renal = tested on: UO-31 renal

What does the source list for `O=C(/C=C/c1cccc(O)c1)c1cccc(-n2cc(-c3ccccc3)[nH]c2=O)c1`?
GI50 (786-0 renal): 2.36 µM; GI50 (A498 renal): 12.3 µM; TGI (A498 renal): 24.9 µM; GI50 (A549 NSCLC): 6.39 µM; TGI (A549 NSCLC): 21.8 µM; GI50 (ACHN renal): 2.72 µM; TGI (ACHN renal): 7.4 µM; GI50 (BT-549 breast): 3.57 µM; TGI (BT-549 breast): 9.79 µM; GI50 (CAKI-1 renal): 4.95 µM; TGI (CAKI-1 renal): 10.5 µM; GI50 (CCRF-CEM leukemia): 3.1 µM; TGI (CCRF-CEM leukemia): > 41.1 µM; GI50 (COLO 205 colon): 1.96 µM; TGI (COLO 205 colon): 3.85 µM; GI50 (DU-145 prostate): 3.15 µM; TGI (DU-145 prostate): 10.3 µM; GI50 (EKVX NSCLC): 7.18 µM; TGI (EKVX NSCLC): 23 µM; GI50 (HCC-2998 colon): 8.27 µM; TGI (HCC-2998 colon): 20.2 µM; GI50 (HCT-116 colon): 2.22 µM; GI50 (HCT-15 colon): 2.94 µM; TGI (HCT-15 colon): 10.3 µM; GI50 (HL-60(TB) leukemia): 3.27 µM; TGI (HL-60(TB) leukemia): 17.5 µM; GI50 (HOP-62 NSCLC): 4.27 µM; TGI (HOP-62 NSCLC): > 25.9 µM; GI50 (HOP-92 NSCLC): 3.57 µM; TGI (HOP-92 NSCLC): 13.8 µM; GI50 (HS 578T breast): 5.7 µM; TGI (HS 578T breast): 44.6 µM; GI50 (HT29 colon): 2.58 µM; TGI (HT29 colon): > 20.6 µM; GI50 (IGROV1 ovarian): 3.24 µM; TGI (IGROV1 ovarian): 13.2 µM; GI50 (K-562 leukemia): 2.52 µM; TGI (K-562 leukemia): > 24.8 µM; GI50 (KM12 colon): 1.78 µM; TGI (KM12 colon): 3.46 µM; GI50 (LOX IMVI melanoma): 1.81 µM; TGI (LOX IMVI melanoma): 3.44 µM; GI50 (M14 melanoma): 2.89 µM; GI50 (MALME-3M melanoma): 3.53 µM; TGI (MALME-3M melanoma): 10.9 µM; GI50 (MCF7 breast): 2.29 µM; TGI (MCF7 breast): 6.68 µM; GI50 (MDA-MB-231 breast): 3.59 µM; TGI (MDA-MB-231 breast): 12.6 µM; GI50 (MDA-MB-435): 2.53 µM; TGI (MDA-MB-435): 9.64 µM; GI50 (MOLT-4 leukemia): 3.38 µM; TGI (MOLT-4 leukemia): > 27.3 µM; GI50 (NCI-H226 lung): 8.48 µM; TGI (NCI-H226 lung): 28.5 µM; GI50 (NCI-H23 lung): 3.64 µM; TGI (NCI-H23 lung): 14.4 µM; GI50 (NCI-H460 lung): 2.84 µM; TGI (NCI-H460 lung): 7.4 µM; GI50 (NCI-H522 lung): 1.5 µM; TGI (NCI-H522 lung): 4.3 µM; GI50 (NCI/ADR-RES ovarian): 3.94 µM; TGI (NCI/ADR-RES ovarian): 15.3 µM; GI50 (OVCAR-3 ovarian): 2.58 µM; TGI (OVCAR-3 ovarian): 6.19 µM; GI50 (OVCAR-4 ovarian): 4.15 µM; TGI (OVCAR-4 ovarian): > 37 µM; GI50 (OVCAR-5 ovarian): 3.86 µM; TGI (OVCAR-5 ovarian): 11.9 µM; GI50 (OVCAR-8 ovarian): 2.86 µM; TGI (OVCAR-8 ovarian): 10.5 µM; GI50 (PC-3 prostate): 2.82 µM; TGI (PC-3 prostate): 11.1 µM; GI50 (RPMI-8226 leukemia): 2.16 µM; TGI (RPMI-8226 leukemia): 6.33 µM; GI50 (RXF 393 renal): 1.83 µM; TGI (RXF 393 renal): 3.51 µM; GI50 (SF-268 CNS): 3.66 µM; TGI (SF-268 CNS): 12.3 µM; GI50 (SF-295 CNS): 5.77 µM; TGI (SF-295 CNS): 11.8 µM; GI50 (SF-539 CNS): 1.97 µM; TGI (SF-539 CNS): 3.84 µM; GI50 (SK-MEL-2 melanoma): 6.23 µM; TGI (SK-MEL-2 melanoma): 24.7 µM; GI50 (SK-MEL-28 melanoma): 8.07 µM; TGI (SK-MEL-28 melanoma): 20.6 µM; GI50 (SK-MEL-5 melanoma): 2.41 µM; TGI (SK-MEL-5 melanoma): 6.59 µM; GI50 (SK-OV-3 ovarian): 12.3 µM; TGI (SK-OV-3 ovarian): 25 µM; GI50 (SN12C renal): 3.01 µM; TGI (SN12C renal): 11.3 µM; GI50 (SNB-19 CNS): 6.58 µM; TGI (SNB-19 CNS): 18.6 µM; GI50 (SNB-75 CNS): 5.7 µM; TGI (SNB-75 CNS): 18.2 µM; GI50 (SR leukemia): 1.51 µM; TGI (SR leukemia): > 20.1 µM; GI50 (SW-620 colon): 2.13 µM; TGI (SW-620 colon): 4.74 µM; GI50 (T-47D breast): 3.14 µM; TGI (T-47D breast): 12.1 µM; GI50 (TK-10 renal): 2.43 µM; TGI (TK-10 renal): 6.89 µM; GI50 (U251 CNS): 1.56 µM; TGI (U251 CNS): 3.05 µM; GI50 (UACC-257 melanoma): 8.89 µM; TGI (UACC-257 melanoma): 21.8 µM; GI50 (UACC-62 melanoma): 2.82 µM; TGI (UACC-62 melanoma): 9.54 µM; GI50 (UO-31 renal): 1.99 µM; TGI (UO-31 renal): 7.02 µM
